Source: patent US11746328B2, “Methods and systems for functional maturation of iPSC and ESC derived cardiomyocytes” (Agilent Technologies, Inc., priority 2017, dated 2023)

What was measured:
iPSC cardiomyocytes = assay: Inotropic compound test on iPSC cardiomyocytes, xCELLigence RTCA CardioECR (Example V); assay type: cell-based; conditions: 30 minutes post compound addition; for beating rate: FIG. 6B; for beating amplitude (positive inotropic effect): FIG. 6A
Experimental: The functional maturation of iPSC cardiomyocytes from Example III was tested using inotropic compounds. Results are shown in FIG. 6A-B. In particular, iPSC cardiomyocytes were seeded in the wells of the CardioECR Plate (E-Plate CardioECR 48) for approximately 7 days until they formed a synchronous, stable beating monolayer. The cells were then electrically paced at 1 Hz, 1.5 Hz and 2 Hz for 1 week respectively (week 1: 1 Hz pacing; week 2: 1.5 Hz pacing; week 3: 2 Hz pacing). After pausing the 2 Hz pacing, cell media was replaced with 90 μL of fresh pre-warmed media the night before compound addition. The cells were then continuously paced for additional 8 hours at 2 Hz. The electrical pacing was terminated 5 hours prior to compound addition to ensure that cells would generate a stable beating rate and beating amplitude for treatment. The baseline beating activity was recorded for 20 seconds every 5 minutes up to 30 minutes immediately prior to compound addition. 10 μL of 10× compound solution was then added to the wells of CardioECR plate using a multichannel pipette. The cell response to the compound was recorded for 20 seconds every 2 minutes immediately after compound exposure using CardioECR system. The cell beating activity, including beating rate and beating amplitude, was evaluated at 30 minutes post compound addition.

[1] = tested on: iPSC-derived cardiomyocytes; assay: Inotropic compound screening on functionally matured iPSC-derived cardiomyocytes, xCELLigence RTCA CardioECR (Example VI, FIG. 7, FIG. 8); assay type: cell-based; conditions: for beating rate: FIG. 7B
Experimental: Cell monolayer preparation. The iPSC-derived cardiomyocytes were seeded at the optimal seeding density in the wells of E-plate CardioECR 48, which were pre-coated with substrate. The attachment, growth and beating activity of the cells were recorded after cell seeding in real-time using xCELLigence RTCA CardioECR station, which was placed in a 37° C. tissue culture incubator. Medium change was performed every other day.
Induction of functionally mature iPSC-derived cardiomyocytes. The electrical pacing was initiated and applied to the cell monolayer after a stable and robust beating activity of iPSC-derived cardiomyocytes is observed using xCELLigence RTCA cardioECR system. The iPSC-derived cardiomyocytes were then electrically paced at 1 Hz, 1.5 Hz and 2 Hz for 1 week respectively using xCELLigence RTCA CardioECR system. The pulse intensity and pulse duration was optimized before each pacing frequency and continuously applied to the cells. The cells were confirmed to beat at the same frequency as the pacing frequency under the pacing condition. Medium change was performed every day during chronic pacing procedure.
Inotropic compound screening. After completion of functional maturation of cardiomyocytes over the course of ramping up pacing process for 3 weeks, the inotropic compound screening was conducted. The old media was replaced with 90 μL of fresh pre-warmed media the night before compound addition. The cells will were continuously paced for an additional 12 hours at 2 Hz using the CardioECR system. The electrical pacing was terminated 6 hours prior to compound application to ensure that cells generated stable beating rate and beating amplitude for treatment. The cell beating activity is monitored and recorded in real-time on the CardioECR system.
The effective concentration ranges for the test substances were determined. The compound solution is prepared as follows. The compounds are dissolved in the appropriate solvent. If DMSO is used as the solvent, dissolve the compound in a high stock concentration if possible (ideally more than 1000-fold of the highest test concentration) and store at −20° C. Serial dilutions of compounds are prepared 1000× concentrated in appropriate solvent (DMSO or H2O). Diluted compounds are transferred to the wells of a V-bottom microtiter plate for further dilution in culture medium (10× concentrated).
The baseline of beating activity is recorded for 20 seconds every 5 minutes up to 30 minutes immediately prior to compound addition on the CardioECR system. 10 μL of 10× compound solution is added to the wells of CardioECR plate using multichannel pipette. The cell response to the compound is recorded for 20 seconds every 2 minutes immediately after compound exposure using CardioECR system. The cell beating activity, including beating rate and beating amplitude, is evaluated at 30 minutes post compound addition.

immature cardiomyocytes = conditions: T3 treatment of immature cardiomyocytes; cited from earlier work
[2] = spontaneous beating cardiomyocytes
[3] = FIG. 8 panel, functional matured iCell cardiomyocytes after pacing, representative concentrations

CC(C)NCC(O)c1ccc(O)c(O)c1 (stereo not shown) [isoproterenol]
beating rate (iPSC cardiomyocytes; chronically paced cardiomyocytes (1, 1.5, 2 Hz, 1 week each)): increase | beating amplitude (positive inotropic effect) (iPSC cardiomyocytes; chronically paced cardiomyocytes): increase | beating amplitude (positive inotropic effect) (iPSC cardiomyocytes; [2]): only observed in paced cells | beating rate (iPSC cardiomyocytes; [2]): increase | chronotropic effect [1, 3]: positive chronotropic effect

COC(=O)C1=C(C)NC(C)=C([N+](=O)[O-])C1c1ccccc1C(F)(F)F (stereo not shown) [bayK]
inotropic effect [1, 3]: positive inotropic effect

Cc1[nH]c(=O)c(C#N)cc1-c1ccncc1 [milrinone]
beating rate ([1]; chronically paced cardiomyocytes, 30 minutes post compound addition): slightly increased | beating amplitude ([1]; electrically paced cardiomyocytes, 30 minutes post compound addition, FIG. 7A): significantly increased | beating rate ([1]; spontaneous beating cardiomyocytes, 30 minutes post compound addition): slightly increased

C[C@H]1O[C@@H](O[C@H]2[C@@H](O)C[C@H](O[C@H]3[C@@H](O)C[C@H](O[C@H]4CC[C@@]5(C)[C@H](CC[C@@H]6[C@@H]5C[C@@H](O)[C@]5(C)[C@@H](C7=CC(=O)OC7)CC[C@]65O)C4)O[C@@H]3C)O[C@@H]2C)C[C@H](O)[C@@H]1O [digoxin]
inotropic effect [1, 3]: positive inotropic effect

N[C@@H](Cc1cc(I)c(Oc2ccc(O)c(I)c2)c(I)c1)C(=O)O [T3, Tri-iodo-L-thryonine]
calcium handling properties (immature cardiomyocytes): enhanced | cardiomyocyte size (immature cardiomyocytes): increased | contractile force generation (immature cardiomyocytes): increased | maximal mitochondrial respiration capacity (immature cardiomyocytes): increased | proliferation (immature cardiomyocytes): decreased | sarcomere length (immature cardiomyocytes): increased
